Data on four molecules can be found in article PMC6120666 (The EMBO Journal, 2018).

The target in one assay is T1, recombinant RIPK3 (Homo sapiens, UniProt Q9Y572).
T1 construct: made in house
The assay can be described thus: RIPK3 ADPGlo kinase assay. Type of assay: biochemical. Conditions: concentrations up to 1 µM. As to the method:
Cell viability was determined using CellTiter‐Glo assay (Promega). […] Kinase activities were determined using ADPGlo assay (Promega). • Structure of the active conformation of RIPK2 kinase domain in complex with AMP‐PNP (PDB ID: 5AR3). Figure depicts locations of the adenine and deep pockets. […] Key residues discussed in the text are shown as sticks (Lys/Glu Glu‐in bond—bottom left, catalytic Asp residues (Asp146/Asp164)—bottom right, R‐spine—right). P‐loop of CSLP18 structure is shown in yellow. Structured segment of activation segment (AS) observed in active conformation structures is shown in red. • Structure of RIPK2 kinase domain (gray ribbons) in complex with CSLP18 (orange) (PDB ID 6FU5). Sticks are shown for residues in the vicinity of the cavity surrounding the key inhibitor position R1. A 2Fo‐Fc electron density map contoured at 1 sigma is shown for the inhibitor and the residues lining the key region around inhibitor R^1 position. • Molecular docking model of RIPK2 kinase domain in complex with CSLP37 (yellow) based on RIPK2/CSLP18 structure (Fig 3D). […] Data information: Data in (A–C, G) represent the mean ± SEM of three independent experiments. **P < 0.01. Two‐way ANOVA was used to determine statistical significance. […]
On the technique in general: In ADP-Glo the light output rises with the ADP produced.

The target of assay [1] is T2, proteins of U2OS cell lysate (Homo sapiens, UniProt P07947).
T2 construct: Proteins enriched by c-ponatinib from U2OS cell lysate; endogenous in cells; host or cells: U2OS cell lysate
T2 sequence (P07947 whole entry): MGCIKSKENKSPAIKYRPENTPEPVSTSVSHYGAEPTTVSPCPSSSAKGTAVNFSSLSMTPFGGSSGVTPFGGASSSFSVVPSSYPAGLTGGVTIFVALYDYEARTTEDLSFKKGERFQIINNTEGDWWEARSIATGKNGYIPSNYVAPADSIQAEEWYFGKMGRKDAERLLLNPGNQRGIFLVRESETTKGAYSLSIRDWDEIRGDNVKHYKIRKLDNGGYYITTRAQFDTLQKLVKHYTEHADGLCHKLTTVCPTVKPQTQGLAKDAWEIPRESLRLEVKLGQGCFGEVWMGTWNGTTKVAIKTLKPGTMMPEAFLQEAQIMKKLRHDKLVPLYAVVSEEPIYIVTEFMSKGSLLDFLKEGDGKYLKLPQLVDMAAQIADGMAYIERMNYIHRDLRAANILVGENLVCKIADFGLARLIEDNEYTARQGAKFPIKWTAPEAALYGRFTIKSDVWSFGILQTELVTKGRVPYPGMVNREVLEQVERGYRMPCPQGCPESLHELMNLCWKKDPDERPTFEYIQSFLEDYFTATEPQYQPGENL
The assay can be described thus: Drug affinity chromatography with c-ponatinib and LC-MS/MS (ponatinib interactome). Conditions: YES1, Tyrosine-protein kinase Yes. Type of assay: binding. In a few lines:
(§1)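 Proteins were identified by nano-UPLC–MS/MS after elution with formic acid and trypsin digestion. They were captured from U2OS lysate (2 mg protein per pulldown, NP-40 buffer) on amine-coupled NHS beads during a 2 h incubation at 4 °C.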

The target in assay [2] is T3, proteins of U2OS cell lysate (Homo sapiens, UniProt P10809).
T3 construct: Proteins enriched by c-ponatinib from U2OS cell lysate; endogenous in cells; host or cells: U2OS cell lysate
The description is as above. The assay is classed as binding. Conditions: HSPD1, 60 kDa heat shock protein, mitochondrial. In a few lines: as §1

Assay [3] deals with T4, proteins of U2OS cell lysate (Homo sapiens, UniProt P49207).
T4 construct: Proteins enriched by c-ponatinib from U2OS cell lysate; endogenous in cells; host or cells: U2OS cell lysate
The assay is described as above. Conditions: RPL34, 60S ribosomal protein L34. The assay is classed as binding. In a few lines:
as §1

Assay [4] has as its target T5, proteins of U2OS cell lysate (Homo sapiens, UniProt Q01082).
T5 construct: Proteins enriched by c-ponatinib from U2OS cell lysate; endogenous in cells; host or cells: U2OS cell lysate
The description is as above. The assay is classed as binding. Conditions: SPTBN1, Spectrin beta chain, non-erythrocytic 1. In a few lines:
as §1

For assay [5], the target named is T6, proteins of U2OS cell lysate (Homo sapiens, UniProt Q15233).
T6 construct: Proteins enriched by c-ponatinib from U2OS cell lysate; endogenous in cells; host or cells: U2OS cell lysate
T6 sequence (Q15233 whole entry): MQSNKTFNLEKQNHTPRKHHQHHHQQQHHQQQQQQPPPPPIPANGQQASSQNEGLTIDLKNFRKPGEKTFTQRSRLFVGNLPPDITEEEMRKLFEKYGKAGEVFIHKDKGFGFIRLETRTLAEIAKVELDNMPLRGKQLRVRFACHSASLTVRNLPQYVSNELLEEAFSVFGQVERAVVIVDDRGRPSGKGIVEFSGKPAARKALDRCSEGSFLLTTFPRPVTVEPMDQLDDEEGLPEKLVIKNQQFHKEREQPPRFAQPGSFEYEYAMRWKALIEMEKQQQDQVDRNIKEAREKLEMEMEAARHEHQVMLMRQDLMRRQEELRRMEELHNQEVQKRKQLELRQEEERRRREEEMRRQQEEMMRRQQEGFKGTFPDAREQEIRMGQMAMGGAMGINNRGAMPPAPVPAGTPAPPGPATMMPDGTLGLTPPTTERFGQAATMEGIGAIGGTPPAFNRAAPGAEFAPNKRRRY
The assay is described as above. The assay is classed as binding. Conditions: NONO, Non-POU domain-containing octamer-binding protein. In a few lines: as §1

Assay [6] deals with T7, proteins of U2OS cell lysate (Homo sapiens, UniProt Q8TEX9).
T7 construct: Proteins enriched by c-ponatinib from U2OS cell lysate; endogenous in cells; host or cells: U2OS cell lysate
T7 sequence (Q8TEX9 whole entry): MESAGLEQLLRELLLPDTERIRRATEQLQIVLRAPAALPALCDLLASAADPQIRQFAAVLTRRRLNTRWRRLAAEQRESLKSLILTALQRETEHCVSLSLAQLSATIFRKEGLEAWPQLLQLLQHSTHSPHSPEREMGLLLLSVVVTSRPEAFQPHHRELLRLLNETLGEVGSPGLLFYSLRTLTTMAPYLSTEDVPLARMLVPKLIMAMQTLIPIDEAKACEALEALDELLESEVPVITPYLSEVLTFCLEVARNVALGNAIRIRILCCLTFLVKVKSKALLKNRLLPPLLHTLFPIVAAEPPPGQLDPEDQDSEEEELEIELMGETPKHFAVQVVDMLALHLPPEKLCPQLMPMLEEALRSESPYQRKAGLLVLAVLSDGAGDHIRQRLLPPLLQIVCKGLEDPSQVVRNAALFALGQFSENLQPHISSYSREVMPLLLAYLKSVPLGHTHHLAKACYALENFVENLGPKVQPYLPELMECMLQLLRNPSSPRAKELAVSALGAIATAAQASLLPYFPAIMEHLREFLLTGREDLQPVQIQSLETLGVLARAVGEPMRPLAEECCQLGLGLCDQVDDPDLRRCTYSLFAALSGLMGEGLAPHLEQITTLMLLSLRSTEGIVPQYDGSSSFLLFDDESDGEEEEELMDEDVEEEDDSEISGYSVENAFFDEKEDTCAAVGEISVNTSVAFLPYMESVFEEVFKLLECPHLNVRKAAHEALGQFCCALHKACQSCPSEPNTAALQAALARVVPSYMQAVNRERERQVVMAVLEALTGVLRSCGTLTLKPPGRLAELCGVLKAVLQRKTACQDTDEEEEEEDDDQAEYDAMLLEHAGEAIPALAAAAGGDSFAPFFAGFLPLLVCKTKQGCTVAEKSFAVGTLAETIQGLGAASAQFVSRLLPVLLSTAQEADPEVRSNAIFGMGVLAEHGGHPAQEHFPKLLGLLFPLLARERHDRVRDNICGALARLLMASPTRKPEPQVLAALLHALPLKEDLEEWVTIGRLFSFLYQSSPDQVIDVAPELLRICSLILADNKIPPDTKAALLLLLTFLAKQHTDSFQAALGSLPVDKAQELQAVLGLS
Described as above. Type of assay: binding. Conditions: IPO4, Importin-4. In a few lines: as §1

Another assay has as its system C57Bl6/J mice. More on the design: method as in Nachbur et al, 2015. Conditions: ref Nachbur et al, 2015; cited from earlier work.

T1 sequence (Q9Y572 whole entry, species assumed): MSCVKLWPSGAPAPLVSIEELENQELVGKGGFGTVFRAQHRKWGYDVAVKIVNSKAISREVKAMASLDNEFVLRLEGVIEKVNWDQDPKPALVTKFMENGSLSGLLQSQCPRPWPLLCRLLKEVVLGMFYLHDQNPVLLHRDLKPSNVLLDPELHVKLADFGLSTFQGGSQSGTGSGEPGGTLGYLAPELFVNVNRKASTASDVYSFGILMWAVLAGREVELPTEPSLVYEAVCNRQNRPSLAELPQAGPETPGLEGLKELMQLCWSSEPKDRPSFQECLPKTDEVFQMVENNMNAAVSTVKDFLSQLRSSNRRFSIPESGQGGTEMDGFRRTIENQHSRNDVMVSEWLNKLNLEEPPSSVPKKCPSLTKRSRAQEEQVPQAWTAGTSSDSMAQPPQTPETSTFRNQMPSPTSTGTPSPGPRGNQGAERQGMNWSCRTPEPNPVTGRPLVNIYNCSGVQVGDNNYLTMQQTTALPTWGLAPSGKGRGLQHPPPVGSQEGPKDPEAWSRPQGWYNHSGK
T5 sequence (Q01082 whole entry): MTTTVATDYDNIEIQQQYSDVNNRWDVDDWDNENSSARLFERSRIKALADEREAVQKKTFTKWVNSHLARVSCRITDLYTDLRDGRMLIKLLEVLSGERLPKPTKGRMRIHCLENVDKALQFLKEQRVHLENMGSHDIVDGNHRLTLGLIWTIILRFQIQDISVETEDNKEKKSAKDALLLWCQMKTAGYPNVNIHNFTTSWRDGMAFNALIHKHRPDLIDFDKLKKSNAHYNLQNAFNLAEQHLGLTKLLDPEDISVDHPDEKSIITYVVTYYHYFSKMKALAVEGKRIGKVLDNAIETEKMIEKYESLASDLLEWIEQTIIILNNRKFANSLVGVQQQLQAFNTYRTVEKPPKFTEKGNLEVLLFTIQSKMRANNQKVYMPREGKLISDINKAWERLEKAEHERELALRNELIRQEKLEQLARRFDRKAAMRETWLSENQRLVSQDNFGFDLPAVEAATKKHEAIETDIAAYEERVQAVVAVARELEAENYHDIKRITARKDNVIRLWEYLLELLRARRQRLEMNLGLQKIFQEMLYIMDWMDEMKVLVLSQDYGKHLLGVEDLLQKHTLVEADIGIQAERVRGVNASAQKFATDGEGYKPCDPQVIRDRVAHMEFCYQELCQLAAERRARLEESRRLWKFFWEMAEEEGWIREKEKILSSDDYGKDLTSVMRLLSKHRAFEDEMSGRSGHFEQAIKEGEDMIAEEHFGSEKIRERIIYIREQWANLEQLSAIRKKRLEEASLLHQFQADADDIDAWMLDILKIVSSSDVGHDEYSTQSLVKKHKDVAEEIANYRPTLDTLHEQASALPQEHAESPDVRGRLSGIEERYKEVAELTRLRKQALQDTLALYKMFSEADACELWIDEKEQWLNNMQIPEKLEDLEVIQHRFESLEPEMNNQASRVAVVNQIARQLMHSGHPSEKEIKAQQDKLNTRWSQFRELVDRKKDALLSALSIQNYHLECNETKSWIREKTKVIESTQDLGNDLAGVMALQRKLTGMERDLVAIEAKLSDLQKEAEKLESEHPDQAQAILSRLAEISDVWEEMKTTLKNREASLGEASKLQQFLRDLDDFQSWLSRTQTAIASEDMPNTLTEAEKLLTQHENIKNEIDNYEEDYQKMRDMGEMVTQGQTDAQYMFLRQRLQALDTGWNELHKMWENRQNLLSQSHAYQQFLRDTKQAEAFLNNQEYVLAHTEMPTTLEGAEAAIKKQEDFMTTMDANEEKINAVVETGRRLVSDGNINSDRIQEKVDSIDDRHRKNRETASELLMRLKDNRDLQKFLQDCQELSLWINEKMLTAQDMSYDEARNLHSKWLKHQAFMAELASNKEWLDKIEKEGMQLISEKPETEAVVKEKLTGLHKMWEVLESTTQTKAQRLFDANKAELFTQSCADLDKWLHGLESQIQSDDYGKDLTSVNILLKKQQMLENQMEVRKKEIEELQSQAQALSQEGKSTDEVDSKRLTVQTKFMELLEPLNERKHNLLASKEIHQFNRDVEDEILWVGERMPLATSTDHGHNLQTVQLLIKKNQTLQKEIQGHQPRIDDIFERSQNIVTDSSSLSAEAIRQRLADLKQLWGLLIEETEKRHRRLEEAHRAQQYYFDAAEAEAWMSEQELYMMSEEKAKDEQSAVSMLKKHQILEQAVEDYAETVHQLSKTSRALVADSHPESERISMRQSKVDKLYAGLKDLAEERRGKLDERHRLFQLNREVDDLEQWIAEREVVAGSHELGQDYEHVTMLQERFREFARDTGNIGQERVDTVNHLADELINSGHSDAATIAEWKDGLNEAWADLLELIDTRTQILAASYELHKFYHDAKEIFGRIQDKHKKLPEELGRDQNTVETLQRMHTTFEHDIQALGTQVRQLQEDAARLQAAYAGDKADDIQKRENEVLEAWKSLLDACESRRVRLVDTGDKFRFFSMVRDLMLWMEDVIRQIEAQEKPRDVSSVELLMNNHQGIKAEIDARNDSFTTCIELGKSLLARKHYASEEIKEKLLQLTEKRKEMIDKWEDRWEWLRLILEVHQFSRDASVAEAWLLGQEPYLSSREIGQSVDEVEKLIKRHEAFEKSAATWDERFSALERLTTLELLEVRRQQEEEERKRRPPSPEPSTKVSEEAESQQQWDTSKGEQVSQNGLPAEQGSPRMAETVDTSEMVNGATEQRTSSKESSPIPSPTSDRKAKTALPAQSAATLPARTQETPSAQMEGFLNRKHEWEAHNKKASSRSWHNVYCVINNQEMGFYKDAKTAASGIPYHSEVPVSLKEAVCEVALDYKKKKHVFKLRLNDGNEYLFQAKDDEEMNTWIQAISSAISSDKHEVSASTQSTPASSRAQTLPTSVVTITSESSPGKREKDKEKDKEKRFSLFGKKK

For `CCCS(=O)(=O)Nc1cc(-c2cc(-c3ccc(N4CCNCC4)cc3)cnc2N)cc(F)c1OC` [CSLP37], at recombinant RIPK3, the “inhibitory activity against RIPK3” value was “no inhibitory activity”.
On the same count and under the same terms, the entry for `CCCS(=O)(=O)Nc1cc(-c2cc(-c3ccc(N4CCNCC4)cc3)cnc2N)cc(OC)c1OC` [CSLP43] is “no inhibitory activity”.
Turning to `Cc1ccc(C(=O)Nc2ccc(CN3CCN(C)CC3)c(C(F)(F)F)c2)cc1C#Cc1cnc2cccnn12` [PON], the “Average LFQ PON_WT” value in assay [1] was found to be 25.9404; in assay [2], 21.1431; in assay [3] it was 21.0301; in assay [4], 25.171; in assay [5], 20.9839; in assay [6], 20.7176.
Take `Cc1ccc(-c2nn(C(C)(C)CNC(=O)c3ccncc3)c3ncnc(N)c23)cc1` [WEHI‐345, reference compound]: the “increase in serum levels of TNF in mice challenged with MDP” value in the assay with C57Bl6/J mice is “only partially inhibited”.
